Eleven compounds from ChEMBL document CHEMBL1201862, “PubChem BioAssay data set” (2004) can be followed below.

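Test compounds were applied to cells in 96-well plates for 48 hours at 5 doses. Here, GI50 denotes the concentration required for 50% inhibition of growth.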 Activity calls are given as the source filed them. Cut-off read from the data, not from the text of the source: active = GI50 up to about 1.1 µM and inactive = higher. Some results are limits rather than exact numbers.

Test systems include A498; RPMI-8226; M14; SK-MEL-5; MDA-MB-435; CAKI-1; NCI-H460; HT-29; Hs-578T; ACHN; TK-10; SNB-19; BT-549; HL-60; KM12; LOX IMVI; MCF7; A549; MOLT-4; CCRF-CEM.
Common to all, as to assay: NCI anticancer screen, dose series, 48 h

Take `CCCCCCN(CCCCCC)CCC(=O)c1ccc2cc(Br)c3ccccc3c2c1`: the GI50 in the experiment on A498 is 36.3 µM (inactive); with RPMI-8226, 9.31 µM (inactive); in the experiment with M14 it was 82.6 µM (inactive); in the experiment on SK-MEL-5, 26.1 µM (inactive); in the experiment on MDA-MB-435, 26.1 µM (inactive); in the experiment on CAKI-1 it was 66.7 µM (inactive). Further, the GI50 in the experiment with NCI-H460 was 30.5 µM (inactive); in the experiment on HT-29, 66.1 µM (inactive); in the experiment with Hs-578T, 33.3 µM (inactive); with ACHN it was 54.1 µM (inactive); in the experiment with TK-10, 26.4 µM (inactive); with SNB-19 it was 44.3 µM (inactive). The GI50 in the experiment on BT-549 is 20.3 µM (inactive); in the experiment with HL-60 it was 10.8 µM (inactive); in the experiment with KM12, 11.5 µM (inactive); in the experiment with LOX IMVI, 32 µM (inactive); with MCF7 it was 20.2 µM (inactive); with A549, > 100 µM (inactive).
Consider `CC(C)[S+]1C2=C(CC(C)(C)CC2=O)[N-]c2ccccc21` (stereo not drawn), for which the GI50 with A498, in the experiment with RPMI-8226, in the experiment on M14, in the experiment on SK-MEL-5, in the experiment on MDA-MB-435 and in the experiment with CAKI-1 was > 100 µM (inactive) each time. Moreover, the GI50 with NCI-H460, with HT-29, in the experiment with Hs-578T, in the experiment on ACHN, in the experiment on MOLT-4 and in the experiment with CCRF-CEM was > 100 µM (inactive) in each case. For the same compound, the GI50 with TK-10, in the experiment with SNB-19, with BT-549, with KM12, in the experiment on LOX IMVI and in the experiment on MCF7 was > 100 µM (inactive) each time. Moreover, the GI50 in the experiment on A549 is > 100 µM (inactive).
With `COc1ccc(C2SC(=N)Nc3c2c(C)nn3C(=O)c2ccccc2O)cc1` (stereo not drawn), the GI50 in the experiment with RPMI-8226 is 1.56 µM (inactive); in the experiment with M14 it was 1.67 µM (inactive); in the experiment on SK-MEL-5 it was 2.59 µM (inactive); in the experiment on MDA-MB-435, 0.455 µM (active); with CAKI-1, 0.667 µM (active); with NCI-H460, 3.72 µM (inactive). Further, the GI50 in the experiment on HT-29 is 5.11 µM (inactive); in the experiment with Hs-578T, 0.49 µM (active); with ACHN, 0.374 µM (active); in the experiment on MOLT-4, 1.81 µM (inactive); in the experiment with CCRF-CEM, 2.04 µM (inactive); in the experiment with SNB-19, > 10 µM (inactive). In addition, the GI50 with BT-549 is 1.16 µM (inactive); with HL-60, 2.58 µM (inactive); in the experiment with KM12, 2.89 µM (inactive); in the experiment on LOX IMVI, 3.6 µM (inactive); in the experiment on MCF7, 1.61 µM (inactive); in the experiment with A549, 0.412 µM (active).
In the case of `CC(C)=NN/C(=N\c1ccc(Cl)cc1)NS(=O)(=O)c1ccc(Oc2cccc(Cl)c2C#N)cc1`, the GI50 in the experiment with RPMI-8226, in the experiment with M14, in the experiment with SK-MEL-5, with MDA-MB-435, in the experiment on CAKI-1 and in the experiment on NCI-H460 was > 100 µM (inactive) throughout. Further, the GI50 in the experiment on HT-29, with Hs-578T, with MOLT-4, in the experiment on CCRF-CEM, in the experiment with TK-10 and with SNB-19 was > 100 µM (inactive) in each case. The GI50 with BT-549, in the experiment on HL-60, with KM12, in the experiment with LOX IMVI, in the experiment on MCF7 and with A549 was > 100 µM (inactive) each time.
As to `CC1=C(/C=C/C(C)=C/C=C/C(C)=C/C(=O)OC2CC(n3cc(F)c(=O)[nH]c3=O)OC2CO)C(C)(C)CCC1` (stereo not drawn), the GI50 in the experiment on RPMI-8226 was 0.254 µM (active); in the experiment with M14 it was 1.35 µM (inactive); in the experiment on SK-MEL-5 it was 1.18 µM (inactive); in the experiment on MDA-MB-435 it was 3.97 µM (inactive); with CAKI-1, 0.383 µM (active); with NCI-H460, 0.0429 µM (active). For the same compound, the GI50 with HT-29 is 2.71 µM (inactive); with Hs-578T, 6.62 µM (inactive); in the experiment with ACHN it was 0.082 µM (active); with MOLT-4 it was 0.2 µM (active); in the experiment with CCRF-CEM, 0.374 µM (active); with TK-10, 11.5 µM (inactive). For the same compound, the GI50 was 3.34 µM (inactive) in the experiment with SNB-19; 1.58 µM (inactive) in the experiment on BT-549; 0.628 µM (active) in the experiment on HL-60; 12.2 µM (inactive) in the experiment on KM12; 2.15 µM (inactive) with LOX IMVI; 0.057 µM (active) in the experiment with MCF7. Moreover, the GI50 in the experiment on A549 is 0.153 µM (active).
As to `CN(C)C(=S)N/N=C(\C(=N/NC(=S)N(C)C)c1ccccn1)c1ccccn1`, the GI50 with A498 was 14.8 µM (inactive); in the experiment with RPMI-8226, 5.3 µM (inactive); in the experiment with M14, 11.4 µM (inactive); with SK-MEL-5, 9.02 µM (inactive); in the experiment on MDA-MB-435, 10.1 µM (inactive); in the experiment on CAKI-1, 14.8 µM (inactive). The GI50 in the experiment with NCI-H460 is 2.56 µM (inactive); in the experiment on HT-29 it was 3.22 µM (inactive); with Hs-578T, 1.01 µM (active); in the experiment on ACHN it was 6.61 µM (inactive); in the experiment on TK-10, 8.11 µM (inactive); in the experiment with SNB-19, 12.8 µM (inactive). For the same compound, the GI50 in the experiment on BT-549 was 14.6 µM (inactive); in the experiment with KM12 it was 4.82 µM (inactive); in the experiment on LOX IMVI, 11.8 µM (inactive); in the experiment with MCF7, 1.66 µM (inactive); in the experiment on A549, 6.55 µM (inactive).
`Cc1ccc(O)c(-c2cc(-c3cccc(Cl)c3)c(C#N)c(N)n2)c1`: the GI50 in the experiment on RPMI-8226 is 19.6 µM (inactive); with M14 it was 20.9 µM (inactive); in the experiment with SK-MEL-5, 14.4 µM (inactive); in the experiment with MDA-MB-435, 13.9 µM (inactive); in the experiment with CAKI-1, 29.4 µM (inactive); in the experiment with NCI-H460, 19.6 µM (inactive). The GI50 is 25.8 µM (inactive) with HT-29; 22.7 µM (inactive) in the experiment on Hs-578T; 17.9 µM (inactive) with ACHN; 12.8 µM (inactive) with MOLT-4; 24.4 µM (inactive) in the experiment on CCRF-CEM; 18.1 µM (inactive) in the experiment on TK-10. Also, the GI50 was 36.3 µM (inactive) in the experiment on BT-549; 36.1 µM (inactive) in the experiment with HL-60; 19.6 µM (inactive) with KM12; 16.7 µM (inactive) with LOX IMVI; 13.5 µM (inactive) with MCF7; 18.9 µM (inactive) in the experiment with A549.
Regarding `CCc1n[nH]c(=O)n1N1C(=O)C2CC=CCC2C1=O` (stereo not drawn), the GI50 with A498, in the experiment on RPMI-8226, in the experiment with M14, in the experiment with SK-MEL-5, in the experiment on MDA-MB-435 and in the experiment on CAKI-1 was > 100 µM (inactive) each time. Moreover, the GI50 in the experiment with NCI-H460, in the experiment with HT-29, with Hs-578T, in the experiment with ACHN, with MOLT-4 and in the experiment on CCRF-CEM was > 100 µM (inactive) each time. Moreover, the GI50 in the experiment on TK-10, in the experiment with SNB-19, with BT-549, in the experiment on KM12, in the experiment on LOX IMVI and in the experiment on MCF7 was > 100 µM (inactive) throughout. The GI50 in the experiment on A549 is > 100 µM (inactive).
As to `CN1C(=O)c2c(c3c4ccccc4n(C4OC(CO)C(O)C(O)C4O)c3c3[nH]c4ccccc4c23)C1=O` (stereo not drawn), the GI50 was 1.45 µM (inactive) in the experiment on A498; 16.1 µM (inactive) in the experiment on RPMI-8226; 2.34 µM (inactive) with M14; 1.36 µM (inactive) in the experiment on SK-MEL-5; 2.29 µM (inactive) in the experiment with MDA-MB-435; 1.9 µM (inactive) in the experiment on CAKI-1. The GI50 in the experiment on NCI-H460 was 3.1 µM (inactive); in the experiment with HT-29 it was 3.13 µM (inactive); in the experiment on Hs-578T, 4.45 µM (inactive); with ACHN it was 2.14 µM (inactive); in the experiment with MOLT-4, 0.624 µM (active); with CCRF-CEM, 0.268 µM (active). Further, the GI50 in the experiment on TK-10 was 3.12 µM (inactive); with SNB-19, 0.849 µM (active); with BT-549, 4.99 µM (inactive); with KM12 it was 3.85 µM (inactive); with LOX IMVI it was 1.2 µM (inactive); in the experiment with MCF7 it was 5.51 µM (inactive). In the experiment on A549, the GI50 was 11.8 µM (inactive).
In the case of `CSCCCNC(=O)c1csc(-c2csc(CCNC(=O)CNC(=O)CNC(=O)OC(C)(C)C)n2)n1`, the GI50 in the experiment with A498, in the experiment with M14, with SK-MEL-5, with MDA-MB-435, with CAKI-1 and in the experiment on NCI-H460 was > 100 µM (inactive) throughout. For the same compound, the GI50 in the experiment on HT-29, with Hs-578T, in the experiment on ACHN, in the experiment with MOLT-4, in the experiment on CCRF-CEM and with TK-10 was > 100 µM (inactive) throughout. Moreover, the GI50 in the experiment with SNB-19, in the experiment on BT-549, in the experiment with HL-60, with KM12, in the experiment with LOX IMVI and in the experiment on MCF7 was > 100 µM (inactive) in each case. In addition, the GI50 with A549 is > 100 µM (inactive).
As for `C=CC(OC(C)=O)c1ccc(OC(C)=O)cc1` (stereo not drawn), the GI50 is 12 µM (inactive) in the experiment on A498; 2.25 µM (inactive) with RPMI-8226; 10.5 µM (inactive) with M14; 15 µM (inactive) with SK-MEL-5; 3.45 µM (inactive) in the experiment on MDA-MB-435; 4.88 µM (inactive) with CAKI-1. Also, the GI50 in the experiment on NCI-H460 is 17.1 µM (inactive); in the experiment on HT-29, 4.8 µM (inactive); in the experiment on Hs-578T, 2.37 µM (inactive); in the experiment with ACHN, 2.54 µM (inactive); with MOLT-4 it was 3.31 µM (inactive); in the experiment on TK-10, 2.17 µM (inactive). In addition, the GI50 was 13.9 µM (inactive) with SNB-19; 8.93 µM (inactive) in the experiment on BT-549; 3.79 µM (inactive) in the experiment with HL-60; 5.57 µM (inactive) in the experiment with KM12; 2.88 µM (inactive) with LOX IMVI; 11.4 µM (inactive) in the experiment with MCF7. For the same compound, the GI50 with A549 is 19.8 µM (inactive).
